# Patent publication US8835472B2, “Compounds, pharmaceutical compositions and uses thereof” (Boehringer Ingelheim International GmbH, priority 2010, dated 2014)
# Biological target: human ACC2 (Homo sapiens (Human), UniProt O00763)
# Test: ACC2 assay, spectrophotometric 384 well assay (NADH-linked, coupled lactate dehydrogenase/pyruvate kinase reaction)
# Type: biochemical
# Conditions: hACC2 construct lacking the 128 N-terminal amino acids; 25° C., 340 nm over 15 minutes
# In short: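 Kinetic NADH-linked assay (pyruvate kinase/lactate dehydrogenase coupling) with baculovirus-expressed hACC2 missing its first 128 amino acids. Started with 500 μM ATP and 200 μM each NADH and acetyl-CoA; slope followed 15 min at 25 °C, pH 7.5. No-acetyl-CoA wells define 0%; IC50 by nonlinear regression.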
# Chain of human ACC2 (O00763 129-2458): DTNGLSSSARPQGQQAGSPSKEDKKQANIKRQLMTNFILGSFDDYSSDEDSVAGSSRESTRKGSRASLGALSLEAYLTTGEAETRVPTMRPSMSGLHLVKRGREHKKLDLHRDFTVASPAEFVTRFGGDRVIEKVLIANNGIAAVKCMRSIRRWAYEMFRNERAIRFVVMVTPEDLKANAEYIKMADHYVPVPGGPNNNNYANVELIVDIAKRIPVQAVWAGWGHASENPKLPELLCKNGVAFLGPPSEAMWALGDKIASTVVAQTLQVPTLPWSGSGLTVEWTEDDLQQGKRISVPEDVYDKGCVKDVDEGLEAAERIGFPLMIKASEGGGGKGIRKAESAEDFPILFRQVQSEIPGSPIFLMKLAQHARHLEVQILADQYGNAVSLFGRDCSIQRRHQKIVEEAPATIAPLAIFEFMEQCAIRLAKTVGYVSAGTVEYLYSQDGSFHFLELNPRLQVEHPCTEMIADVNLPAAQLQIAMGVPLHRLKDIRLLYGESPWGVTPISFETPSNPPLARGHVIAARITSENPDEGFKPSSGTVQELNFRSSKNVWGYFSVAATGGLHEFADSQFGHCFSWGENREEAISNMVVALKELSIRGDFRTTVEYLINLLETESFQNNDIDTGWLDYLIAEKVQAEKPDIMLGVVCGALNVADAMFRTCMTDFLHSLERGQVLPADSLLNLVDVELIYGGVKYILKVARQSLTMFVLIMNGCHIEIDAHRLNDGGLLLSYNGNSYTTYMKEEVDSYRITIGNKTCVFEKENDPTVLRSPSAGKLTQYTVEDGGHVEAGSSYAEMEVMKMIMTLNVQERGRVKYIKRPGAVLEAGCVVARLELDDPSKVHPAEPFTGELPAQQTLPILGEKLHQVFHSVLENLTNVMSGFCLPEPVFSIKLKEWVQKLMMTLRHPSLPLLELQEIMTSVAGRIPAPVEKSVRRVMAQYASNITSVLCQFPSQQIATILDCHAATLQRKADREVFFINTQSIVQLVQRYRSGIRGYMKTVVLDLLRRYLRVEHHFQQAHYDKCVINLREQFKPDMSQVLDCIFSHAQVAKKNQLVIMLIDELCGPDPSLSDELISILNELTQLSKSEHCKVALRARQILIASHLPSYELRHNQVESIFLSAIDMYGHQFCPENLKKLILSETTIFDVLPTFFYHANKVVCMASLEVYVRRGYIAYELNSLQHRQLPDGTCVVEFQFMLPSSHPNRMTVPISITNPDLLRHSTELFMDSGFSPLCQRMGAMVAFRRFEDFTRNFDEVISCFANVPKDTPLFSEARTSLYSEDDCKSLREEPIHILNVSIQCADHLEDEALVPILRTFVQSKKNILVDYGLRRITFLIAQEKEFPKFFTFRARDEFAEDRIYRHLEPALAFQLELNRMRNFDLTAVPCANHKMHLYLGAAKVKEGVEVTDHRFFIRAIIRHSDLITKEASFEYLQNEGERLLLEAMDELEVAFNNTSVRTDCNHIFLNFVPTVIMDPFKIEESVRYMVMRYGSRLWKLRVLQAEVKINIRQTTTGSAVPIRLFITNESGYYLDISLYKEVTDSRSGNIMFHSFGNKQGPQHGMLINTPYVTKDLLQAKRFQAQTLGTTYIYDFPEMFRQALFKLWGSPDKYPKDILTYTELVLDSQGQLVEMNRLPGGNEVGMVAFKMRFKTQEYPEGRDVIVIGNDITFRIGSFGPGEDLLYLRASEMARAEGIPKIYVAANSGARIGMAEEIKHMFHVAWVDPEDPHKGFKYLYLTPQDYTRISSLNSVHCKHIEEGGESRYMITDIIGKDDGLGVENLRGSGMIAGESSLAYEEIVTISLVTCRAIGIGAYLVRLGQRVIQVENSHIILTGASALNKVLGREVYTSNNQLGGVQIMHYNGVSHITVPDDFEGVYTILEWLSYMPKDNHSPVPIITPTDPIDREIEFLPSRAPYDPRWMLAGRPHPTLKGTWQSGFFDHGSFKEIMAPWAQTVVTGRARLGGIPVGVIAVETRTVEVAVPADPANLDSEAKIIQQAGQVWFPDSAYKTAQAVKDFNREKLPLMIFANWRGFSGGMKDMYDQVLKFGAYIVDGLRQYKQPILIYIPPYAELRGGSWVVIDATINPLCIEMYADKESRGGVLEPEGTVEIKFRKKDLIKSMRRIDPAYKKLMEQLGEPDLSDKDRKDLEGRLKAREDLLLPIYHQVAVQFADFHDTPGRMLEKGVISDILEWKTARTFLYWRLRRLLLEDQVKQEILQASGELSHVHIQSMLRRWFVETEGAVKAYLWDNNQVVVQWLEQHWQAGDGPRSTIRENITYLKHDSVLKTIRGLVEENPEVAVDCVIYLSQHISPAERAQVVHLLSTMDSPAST
row,Structure (SMILES),IC50
1,CCCOc1ccc(C#Cc2ccc(C(C)(C)CNC(C)=O)cc2)nc1 [Example 23.14],0.65 µM
2,CC(=O)NC(C)Cc1ccc(C#Cc2ccc(OCC3CCCCO3)cc2)cc1 (stereo not drawn) [Example 9.17],0.61 µM
3,CC(=O)NC(C)Cc1ccc(C#Cc2ccc(C(=O)N3CCCC3)c(C)c2)cc1 (stereo not drawn) [Example 1.18],0.99 µM
4,CC(=O)NC(C)Cc1ccc(C#Cc2cnc(NCC3CCC3)nc2)cc1 (stereo not drawn) [Example 13.17],0.18 µM
5,CC(=O)NC(C)Cc1ccc(C#Cc2cccc(C(=O)N(C)c3ccccc3)c2)cc1 (stereo not drawn) [Example 8.40],6.7 µM
6,CCOc1ncc(C#Cc2ccc(CC(C)NC(C)=O)cc2)cn1 (stereo not drawn) [Example 12.17],0.38 µM
7,CC(Cc1ccc(C#Cc2ccc(C3CC3)cn2)cc1)NC(=O)C1CC1 (stereo not drawn) [Example 2.67],7.2 µM
8,C=CC(=O)NC(C)Cc1ccc(C#Cc2ccc(OCC)cc2)cc1 (stereo not drawn) [Example 4.8],0.46 µM
9,CCC(C)Nc1ncc(C#Cc2ccc(CC(C)NC(=O)C3CC3)cc2)cn1 (stereo not drawn) [Example 13.50],1.5 µM
10,CC(Cc1ccc(C#Cc2cccc(OC(C)C)c2)cc1)NC(=O)C1CC1 (stereo not drawn) [Example 14.32],0.71 µM
11,CC(Cc1ccc(C#Cc2ccc(OCC3CC3)cc2)cc1)NC(=O)C1CC1 (stereo not drawn) [Example 14.18],0.14 µM
12,COCC(C)Nc1ncc(C#Cc2ccc(CC(C)NC(C)=O)cc2)cn1 (stereo not drawn) [Example 13.14],1.9 µM
13,CCOc1ccc(C#Cc2ccc(C(C)NC(=O)Nc3cccnc3)cc2)cc1 (stereo not drawn) [Example 6.2],2.2 µM
14,CC(=O)NC(C)Cc1ccc(C#Cc2cnc(NCc3ccccc3C)nc2)cc1 (stereo not drawn) [Example 13.55],0.13 µM
15,CC(=O)NC(C)Cc1ccc(C#Cc2ccnc(N3CCCCC3)n2)cc1 (stereo not drawn) [Example 11.38],0.43 µM
16,CCOc1ccc(C#Cc2ccc(CC(C)NC(=O)c3cn[nH]c3)cc2)cc1 (stereo not drawn) [Example 4.69],0.07 µM
17,CC(=O)NC(C)Cc1ccc(C#Cc2ccnc(Oc3ccccc3)n2)cc1 (stereo not drawn) [Example 12.3],1.3 µM
18,COc1ccc(C#Cc2ccc(CC(C)NC(C)=O)cc2)cn1 (stereo not drawn) [Example 2.22],0.72 µM
19,COc1ccccc1CNc1ncc(C#Cc2ccc(CC(C)NC(C)=O)cc2)cn1 (stereo not drawn) [Example 13.80],0.48 µM
20,CC(=O)NC(C)Cc1ccc(C#Cc2cccc(C(=O)NCC3CCCO3)c2)cc1 (stereo not drawn) [Example 8.29],4.5 µM
21,CC(=O)NC(C)c1ccc(C#Cc2cccc(OCc3ccccc3)c2)cc1 (stereo not drawn) [Example 2.103],0.5 µM
22,CCCNc1nccc(C#Cc2ccc(CC(C)NC(C)=O)cc2)n1 (stereo not drawn) [Example 11.3],2.3 µM

row,Structure (SMILES),IC50
1,CCOc1ccc(C#Cc2ccc(CC(C)NC(=O)C3CCNC3)cc2)cc1 (stereo not drawn) [Example 4.74],2.8 µM
2,CCOc1ccc(C#Cc2ccc(CC(C)NC(=O)COC)cc2)cc1 (stereo not drawn) [Example 4.6],0.97 µM
3,C[C@H](NC(=O)C1CC1)c1ccc(C#Cc2cnc(NC3CC3)nc2)cc1 [Example 13.91],2.9 µM
4,CCCCn1ccc(C#Cc2ccc(CC(C)NC(C)=O)cc2)cc1=O (stereo not drawn) [Example 2.85],1.1 µM
5,CCOc1ccc(C#Cc2ccc(C(C)NC(=O)C(C)OCC(F)(F)F)cc2)cc1 (stereo not drawn) [Example 4.46],8.5 µM
6,COc1ccc(C#Cc2ccc(CC(C)NC(C)=O)cc2)c(C)c1 (stereo not drawn) [Example 1.26],0.32 µM
7,CC(=O)NC(C)Cc1ccc(C#Cc2ccc(OCCC(C)C)nn2)cc1 (stereo not drawn) [Example 14.21],3.1 µM
8,CCOc1ccc(C#Cc2ccc(CC(C)NC(=O)OC)cc2)cc1 (stereo not drawn) [Example 29.2],0.31 µM
9,CC(=O)N[C@@H](C)c1ccc(C#Cc2cnc(OC3CCC3)nc2)cc1 [Example 12.62],0.24 µM
10,CC(=O)NC(C)Cc1ccc(C#Cc2cccc(N(C)C)n2)cc1 (stereo not drawn) [Example 3.13],1.7 µM
11,CC(=O)NC(C)Cc1ccc(C#Cc2ccc(OCc3cnco3)cc2)cc1 (stereo not drawn) [Example 9.41],0.5 µM
12,CC(=O)NC(C)Cc1ccc(C#Cc2ccnc(N(C)C3CCC(O)CC3)n2)cc1 (stereo not drawn) [Example 11.9],4 µM
13,CC(=O)NC(C)Cc1ccc(C#Cc2ccc(CN3CCCC3)cc2)cc1 (stereo not drawn) [Example 2.12],6.7 µM
14,CC(Cc1ccc(C#Cc2ccc(OC3CC3)cc2)cc1)NC(=O)C1CC1 (stereo not drawn) [Example 14.30],0.15 µM
15,CCOc1ccc(C#Cc2ccc(CC(C)NC(=O)C3CC3C)cc2)cc1 (stereo not drawn) [Example 4.35],0.38 µM
16,CCCOc1ccc(C#Cc2ccc(CCNC(C)=O)cc2)cc1 [Example 14.37],0.17 µM
17,CCOc1ccc(C#Cc2ccc(CC(C)NC(=O)N(C)CC)cc2)cc1 (stereo not drawn) [Example 7.3],0.36 µM
18,CC(=O)NC(C)Cc1ccc(C#Cc2cccc(Oc3cncnc3)c2)cc1 (stereo not drawn) [Example 10.3],1.8 µM
19,CCOc1ccc(C#Cc2ccc(CC(C)NC(C)=O)cc2)nc1 (stereo not drawn) [Example 23.13],0.45 µM
20,CC(=O)NC(C)Cc1ccc(C#Cc2ccnc(N3CCC(C)(C)C3)n2)cc1 (stereo not drawn) [Example 11.24],0.39 µM
21,CC(=O)NC(C)Cc1ccc(C#Cc2cnc(NCCc3ccccc3)nc2)cc1 (stereo not drawn) [Example 13.87],1 µM
22,CCOc1ccc(C#Cc2ccc(CC(C)NC(=O)C3CNC(=O)C3)cc2)cc1 (stereo not drawn) [Example 4.32],0.44 µM

row,Structure (SMILES),IC50
1,CCOc1ccc(C#Cc2ccc(CC(C)NC(=O)C3CCCO3)cc2)cc1 (stereo not drawn) [Example 4.37],0.9 µM
2,CCc1ccc(C#Cc2ccc(CC(C)NC(C)=O)cc2)cc1 (stereo not drawn) [Example 1.21],0.4 µM
3,CC(=O)NC(C)Cc1ccc(C#Cc2ccc(OC3CCC3)cc2)cc1 (stereo not drawn) [Example 14.6],0.12 µM
4,CC(=O)NC(C)Cc1ccc(C#Cc2cnc(NC3CCOC3)nc2)cc1 (stereo not drawn) [Example 13.19],0.67 µM
5,CCOc1ncc(C#Cc2ccc([C@H](C)NC(C)=O)cc2)cn1 [Example 12.69],2.6 µM
6,CC(=O)NC(C)Cc1ccc(C#Cc2ccc(OCCn3ccnc3)cc2)cc1 (stereo not drawn) [Example 9.37],0.52 µM
7,CC(=O)NC(C)Cc1ccc(C#Cc2ccnc(N3CCCCC3C)n2)cc1 (stereo not drawn) [Example 11.39],0.72 µM
8,CCCOc1ccc(C#Cc2ccc(C(C)NC(C)=O)cc2)cc1 (stereo not drawn) [Example 2.49],0.25 µM
9,CC(=O)NC(C)Cc1ccc(C#Cc2ccc(C(=O)NC(C)C)cc2)cc1 (stereo not drawn) [Example 8.20],4.4 µM
10,CC(=O)NC(C)Cc1ccc(C#Cc2ccc(OC(C)C)cc2)cc1 (stereo not drawn) [Example 1.29],0.25 µM
11,CC(=O)NC(C)Cc1ccc(C#Cc2cnc(NC3CC3)nc2)cc1 (stereo not drawn) [Example 13.78],0.13 µM
12,CC(Cc1ccc(C#Cc2cnc(N3CCC3)nc2)cc1)NC(=O)C1CC1 (stereo not drawn) [Example 13.51],2.2 µM
13,CCCOc1cc(C#Cc2ccc([C@@H](C)NC(C)=O)cc2)ccn1 [Example 14.22],13.4 µM
14,CC(=O)NC(C)Cc1ccc(C#Cc2cnc3ccccc3c2)cc1 (stereo not drawn) [Example 2.72],0.91 µM
15,C[C@H](NC(=O)C1CC1)c1ccc(C#Cc2cnc(OC3CCC3)nc2)cc1 [Example 12.65],0.45 µM
16,CCC(C)NC(=O)c1cccc(C#Cc2ccc(CC(C)NC(C)=O)cc2)c1 (stereo not drawn) [Example 8.35],2.4 µM
17,CC(=O)NCCc1ccc(C#Cc2ccc(OC(C)C)cc2)cc1 [Example 14.35],0.73 µM
18,C[C@H](NC(=O)C1CC1)c1ccc(C#Cc2cnc(OCC3CC3)nc2)cc1 [Example 12.58],4.5 µM
19,CC(=O)NC(C)Cc1ccc(C#Cc2ccc(-c3ccc(C)cc3)cn2)cc1 (stereo not drawn) [Example 1.17],0.39 µM
20,CC(=O)NC(C)Cc1ccc(C#Cc2ccc(OC(C)(C)C)cc2)cc1 (stereo not drawn) [Example 2.75],0.1 µM
21,CC(Cc1ccc(C#Cc2cnc(NCc3cccnc3)nc2)cc1)NC(=O)C1CC1 (stereo not drawn) [Example 13.46],2.7 µM
22,COc1ccc(Cl)c(C#Cc2ccc(CC(C)NC(C)=O)cc2)c1 (stereo not drawn) [Example 3.8],0.69 µM

row,Structure (SMILES),IC50
1,CC(=O)NC(C)Cc1ccc(C#Cc2ccnc(N(C)Cc3ccncc3)n2)cc1 (stereo not drawn) [Example 11.2],30 µM
2,"CC(=O)NC(C)Cc1ccc(C#Cc2cnc(OC3CCCC3)nc2)cc1 (stereo not drawn) [Example 27.1, N-{2-[4-(2-Cyclopentyloxy-pyrimidin-5-ylethynyl)-phenyl]-1-methyl-ethyl}-acetamide]",0.2 µM
3,CC(=O)NC(C)Cc1ccc(C#Cc2ccc(C(=O)NCc3cccnc3)cc2)cc1 (stereo not drawn) [Example 8.3],13 µM
4,CC(=O)NC(C)Cc1ccc(C#Cc2cccc(C(=O)NCC(F)(F)F)c2)cc1 (stereo not drawn) [Example 8.18],7.7 µM
5,CC(=O)NC(C)Cc1ccc(C#Cc2ccnc(OCC(C)C)n2)cc1 (stereo not drawn) [Example 12.4],0.98 µM
6,CCN(CC)c1nccc(C#Cc2ccc(CC(C)NC(C)=O)cc2)n1 (stereo not drawn) [Example 11.49],0.46 µM
7,CC(=O)NC(C)Cc1ccc(C#Cc2cnc(NCc3ncccn3)nc2)cc1 (stereo not drawn) [Example 13.70],6.8 µM
8,CC(C)Nc1ncc(C#Cc2ccc(CC(C)NC(=O)C3CC3)cc2)cn1 (stereo not drawn) [Example 13.49],2.6 µM
9,CC(=O)NC(C)Cc1ccc(C#Cc2ccnc(N3CCC4(CCC4)C3)n2)cc1 (stereo not drawn) [Example 11.26],0.43 µM
10,CCC(COC)Oc1ncc(C#Cc2ccc(CC(C)NC(C)=O)cc2)cn1 (stereo not drawn) [Example 12.37],1.1 µM
11,CC(=O)NC(C)Cc1ccc(C#Cc2ncc(Cl)cn2)cc1 (stereo not drawn) [Example 2.99],7.4 µM
12,CC(=O)NC(C)Cc1ccc(C#Cc2ccc(OCC3CC3)cc2)cc1 (stereo not drawn) [Example 9.20],0.08 µM
13,CC(=O)NC(C)Cc1ccc(C#Cc2ccnc(OCC3CC3)n2)cc1 (stereo not drawn) [Example 12.5],1.6 µM
14,CC(=O)NC(C)Cc1ccc(C#Cc2cnc(N3CCC(C)(C)CC3)nc2)cc1 (stereo not drawn) [Example 13.57],0.22 µM
15,CCC(C)Nc1ncc(C#Cc2ccc(CC(C)NC(=O)OC)cc2)cn1 (stereo not drawn) [Example 13.39],0.64 µM
16,COC1CN(c2nccc(C#Cc3ccc(CC(C)NC(C)=O)cc3)n2)C1 (stereo not drawn) [Example 11.34],13.9 µM
17,CC(Cc1ccc(C#Cc2ccc(Oc3ccccc3)nc2)cc1)NC(=O)C1CC1 (stereo not drawn) [Example 14.43],0.36 µM
18,CC(=O)NC(C)Cc1ccc(C#Cc2ccc(OCC3CC3)nc2)cc1 (stereo not drawn) [Example 2.23],0.32 µM
19,COC(=O)NC(C)Cc1ccc(C#Cc2cnc(N3CC4CCCC4C3)nc2)cc1 (stereo not drawn) [Example 13.30],0.36 µM
20,CC(=O)NC(C)Cc1ccc(C#Cc2ccc(OCCC3CC3)cc2)cc1 (stereo not drawn) [Example 9.21],0.06 µM
21,C[C@H](NC(=O)C1CC1)c1ccc(I)cc1 [28.1],24.4 µM
